In PubChem BioAssay AID330 (DTP/NCI, 2004):
Where “and” joins values, the source holds several entries; their conditions need not be identical. Equal entries are not always repeated. Toxic doses and inconclusive results are not listed. How the source made its calls: active means survival T/C of 150% or more; inactive means T/C below 125% in these data.

System: P388 leukemia ip, CD2F1 mice, survival T/C
Assay: NCI In Vivo Anticancer Drug Screen. Data for tumor model P388 Leukemia (intraperitoneal) in CD2F1 (CDF1) mice
Conditions: endpoint: median survival time, higher = longer survival
How it was run: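 Mice carrying the transplanted tumor received test compound or vehicle. Survival was recorded in each group, and the value is the treated-group measurement divided by that of the vehicle-treated control group.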

[1] = dose: 50.0 mg/kg/injection, schedule: Q01DX001 (ip), vehicle: Klucel (hydroxypropylcellulose) (HPC)
[2] = dose: 100.0 mg/kg/injection, schedule: Q01DX001 (ip), vehicle: Klucel (hydroxypropylcellulose) (HPC)
[3] = dose: 200.0 mg/kg/injection, schedule: Q01DX001 (ip), vehicle: Klucel (hydroxypropylcellulose) (HPC)
[4] = dose: 50.0 mg/kg/injection, schedule: Q01DX005 (ip), vehicle: saline with Tween-80
[5] = dose: 100.0 mg/kg/injection, schedule: Q01DX005 (ip), vehicle: saline with Tween-80
[6] = dose: 200.0 mg/kg/injection, schedule: Q01DX005 (ip), vehicle: saline with Tween-80
[7] = dose: 50.0 mg/kg/injection, schedule: Q01DX009 (ip), vehicle: saline with Tween-80
[8] = dose: 100.0 mg/kg/injection, schedule: Q01DX009 (ip), vehicle: saline with Tween-80
[9] = dose: 200.0 mg/kg/injection, schedule: Q01DX009 (ip), vehicle: saline with Tween-80

Measured: T/C

CCOP(=O)(O)OCc1ccccc1.[Ti]
inactive: [1] 90 % of control | [2] 97 % of control | [3] 93 % of control

COC(=O)C1=[N+]([O-])OC(C(=O)OC)C1c1ccc(OC)cc1 (stereo not drawn)
inactive: [4] 97 % of control | [5] 97 % of control | [6] 98 % of control

Brc1ccc(-c2cc(-c3cccs3)cc(-c3ccccc3)n2)cc1
inactive: dose: 50.0 mg/kg/injection, schedule: Q01DX009 (ip), vehicle: Klucel (hydroxypropylcellulose) (HPC) 100 % of control | dose: 100.0 mg/kg/injection, schedule: Q01DX009 (ip), vehicle: Klucel (hydroxypropylcellulose) (HPC) 108 % of control | dose: 200.0 mg/kg/injection, schedule: Q01DX009 (ip), vehicle: Klucel (hydroxypropylcellulose) (HPC) 101 % of control

CNC(=O)Oc1ccc(C2CCCCC2)cc1
inactive: [7] 107 % of control | [8] 107 % of control | [9] 88 % of control

CN(O)C(=O)/C=C/c1ccccc1
inactive: dose: 50.0 mg/kg/injection, schedule: Q01DX009 (ip), vehicle: distilled water + Tween-80 104 % of control | dose: 100.0 mg/kg/injection, schedule: Q01DX009 (ip), vehicle: distilled water + Tween-80 104 % of control | dose: 200.0 mg/kg/injection, schedule: Q01DX009 (ip), vehicle: distilled water + Tween-80 110 % of control

CCC12C(=O)C(CC)(C(c3ccccc3)=C1c1ccccc1)C1OC(=O)OC12 (stereo not drawn)
inactive: [7] 97 % of control | [8] 91 % of control | [9] 86 % of control

CCCN=Cc1ccccc1O.CCCN=Cc1ccccc1O.[Cu]
inactive: dose: 3.75 mg/kg/injection, schedule: Q01DX005 (ip), vehicle: Klucel (hydroxypropylcellulose) (HPC) 100 % of control | dose: 7.5 mg/kg/injection, schedule: Q01DX005 (ip), vehicle: Klucel (hydroxypropylcellulose) (HPC) 104 % of control | dose: 15.0 mg/kg/injection, schedule: Q01DX005 (ip), vehicle: Klucel (hydroxypropylcellulose) (HPC) 97 % of control | dose: 30.0 mg/kg/injection, schedule: Q01DX005 (ip), vehicle: Klucel (hydroxypropylcellulose) (HPC) 92 % of control and 97 % of control | dose: 60.0 mg/kg/injection, schedule: Q01DX005 (ip), vehicle: Klucel (hydroxypropylcellulose) (HPC) 108 % of control and 115 % of control

OCc1c(-c2ccccc2)c(-c2ccccc2)c2n1CCC2
inactive: [4] 103 % of control | [5] 92 % of control | [6] 99 % of control

CC(O)C1CCNCC1 (stereo not drawn)
inactive: dose: 50.0 mg/kg/injection, schedule: Q01DX005 (ip), vehicle: saline 102 % of control | dose: 100.0 mg/kg/injection, schedule: Q01DX005 (ip), vehicle: saline 97 % of control

NC(=S)c1ccc(C=Nc2ccccc2)cc1
inactive: [1] 101 % of control | [2] 99 % of control | [3] 100 % of control

O=S(=O)(c1ccc(Br)cc1)S(=O)(=O)c1ccc(Br)cc1
inactive: dose: 50.0 mg/kg/injection, schedule: Q01DX009 (ip), vehicle: saline 87 % of control | dose: 100.0 mg/kg/injection, schedule: Q01DX009 (ip), vehicle: saline 92 % of control | dose: 200.0 mg/kg/injection, schedule: Q01DX009 (ip), vehicle: saline 95 % of control

NC(CCl)=NCc1ccccc1
inactive: dose: 7.5 mg/kg/injection, schedule: Q01DX005 (ip), vehicle: saline 99 % of control | dose: 15.0 mg/kg/injection, schedule: Q01DX005 (ip), vehicle: saline 96 % of control | dose: 30.0 mg/kg/injection, schedule: Q01DX005 (ip), vehicle: saline 111 % of control

O=C(CN1CCOCC1)c1cc2c(c3ccccc13)CCCC2
inactive: dose: 50.0 mg/kg/injection, schedule: Q01DX005 (ip), vehicle: Klucel (hydroxypropylcellulose) (HPC) 94 % of control | dose: 100.0 mg/kg/injection, schedule: Q01DX005 (ip), vehicle: Klucel (hydroxypropylcellulose) (HPC) 99 % of control | dose: 200.0 mg/kg/injection, schedule: Q01DX005 (ip), vehicle: Klucel (hydroxypropylcellulose) (HPC) 96 % of control

C=C1C(=O)OC2C1C(OC(=O)/C(C)=C/C)CC1(COC(O)C1)C2C(=C)C (stereo not drawn)
inactive: dose: 2.5 mg/kg/injection, schedule: Q01DX009 (ip), vehicle: saline + alcohol 107 % of control | dose: 5.0 mg/kg/injection, schedule: Q01DX009 (ip), vehicle: saline + alcohol 118 % of control | dose: 10.0 mg/kg/injection, schedule: Q01DX009 (ip), vehicle: saline + alcohol 109 % of control | dose: 20.0 mg/kg/injection, schedule: Q01DX009 (ip), vehicle: saline + alcohol 100 % of control

CCc1cccc(C)c1NC(=O)C(=O)C(C#N)c1ccc(C)cc1 (stereo not drawn)
inactive: [4] 99 % of control | [5] 93 % of control | [6] 103 % of control

CCCCCCCCCCCCCC[N+]1(CC)CCCCCC1
inactive: dose: 0.04 mg/kg/injection, schedule: Q01DX009 (ip), vehicle: saline 100 % of control and 96 % of control
